How the values were obtained:
[1] = tested on: Human oral mucosa 3D models (composed of human gingival keratinocytes); test: Irritation testing in 3D cultured oral epithelial cells (MTT); format: cell-based; conditions: 4 hr
Description: Human oral mucosa 3D models (composed of human gingival keratinocytes) were exposed topically to CCP-042 oral adhesive film (0.1%, 0.2%, and 0.3%) for 4 hr before viability assessment. Cell viability was measured by MTT assay on tissues, in triplicate. 1% Triton X-100 was used as positive control. The reduction of the viability of tissues exposed to formulations as compared to that of PBS-treated negative controls were used to predict the skin irritation potential using European Union (EU) and Globally Harmonized System (GHS) classifications, which define an irritant as a substance that reduces the viability of the exposed tissue to less than 50% of the viability of untreated controls.

[2] = tested on: Human gingival keratinocytes; test: Cytotoxicity in 2D cultured oral epithelial cells (Cell Titer96 Aqueous One); format: cell-based; conditions: seven concentrations 0.3 to 0.00003%, 24 h
Description: Human gingival keratinocytes derived from a single donor were cultured at 37° C. with 5% CO2, and 95% humidity in a 96-well plate for cytotoxicity evaluation. Cells were incubated in the presence of seven concentrations of isotretinoin ranging from 0.3 to 0.00003% for 24 h in triplicate. Untreated cells were used as baseline control. Cytotoxicity was evaluated using the Cell Titer96 Aqueous One (Promega, WI, USA) basic test according to manufacturer's instructions using an absorbance of 490 nm for the final colorimetric readings.

## CC1=C(/C=C/C(C)=C/C=C/C(C)=C\C(=O)O)C(C)(C)CCC1 [isotretinoin, (2Z,4E,6E,8E)-3,7-dimethyl-9-(2,6,6-trimethylcyclohex-1-en-1-yl)nona-2,4,6,8-tetraenoic acid]
[1]; concentration 0.1%
  toxicity to 3D tissue: not toxic
[1]; concentration 0.2%
  toxicity to 3D tissue: not toxic
[2]
  cytotoxicity (inhibition of viability of more than 20% of control): toxic

From patent publication US10813880B2, “Isotretinoin oral-mucosal formulations and methods for using same” (Skyline Biosciences LLC, priority 2017, dated 2020)
